Source: patent US20140038847A1, “SCREENING AND CULTURING DEVICE AND METHODS FOR THE USE THEREOF” (Microstem, Inc., priority 2010, published 2014)

What was measured:
[1] = system: A549 lung cancer cell line; experiment: TGF-β-induced epithelial mesenchymal transition of A549 cells on MicroMatrix ECM array (e-cadherin / vimentin staining); type: cell-based, human
Procedure: Packages containing products which embody present invention (MicroMatrix™ slides) were removed from −20° C. and brought to room temperature (RT). Using sterile techniques, 4 MicroMatrix™ slides were removed from packaging and put into a 4-chamber slide tray. A549 cells (ATCC, Rockville, Md.) were cultured according to manufacturer's protocol in complete medium of DMEM containing 10% FBS and antibiotics (Life Technology, CA) in standard tissue culture treated T-75 flasks (Corning).
Cells were trypsinized with EDTA for 5 minutes and neutralized with 10 ml of complete medium. Neutralized cell suspensions were put into a 50 ml conical tube and centrifuged for 6 minutes at 1100 rpm. Five milliliters of complete medium containing 5×10^5 cells was added to each of 4 identical MicroMatrix™ slides in the slide tray. The tray was placed in a 37° C. incubator with 5% CO2 and cells were allowed to attach to ECM spots overnight (14 hrs).
Unattached cells and media were aspirated from the slides and 5 ml of media containing 1% FBS with or without 5 ng/ml of TGF-β were added to each chamber. After 24 hrs, media was aspirated from the chamber and 5 ml of 4% para-formaldehyde (PFA) in 1×PBS (fixation buffer) was added to each slide for 10 minutes at RT.
Fixation buffer was aspirated from chambers and fixed slides were stained for nuclei, e-cadherin and vimentin expression. Briefly, mouse anti-human e-cadherin antibody (BD, CA) and rabbit anti-human vimentin (Cell Signaling Technology) antibody were added to each of 4 slides at a 1:100 dilution in PBS at RT for 3 hours. […]
Cell adhesion was determined by the number of nuclei present on a spot. […] Cells adhered to ECM compositions that met the 25 cell/spot criteria were then analyzed for e-cadherin and vimentin expression using the same Bioapplication software. A ring was formed around segmented objects (nuclei) and fluorescence measurements for secondary channels were captured. Average intensities of e-cadherin and vimentin were calculated and normalized by cells per spot.

[2] = system: MCF-7 breast carcinoma cells; experiment: Paclitaxel multiparameter cytotoxicity in MCF-7 cells attached to ECM spots of the array (Cellomics Multiparameter Cytotoxicity 3 kit); type: cell-based, human; settings: cells grown on matrix of collagen IV, collagen V and fibronectin in equal concentrations, compared with fibronectin alone
Procedure: The human breast adenocarcinoma cell line MCF-7 was purchased from American Type Culture Collection (ATCC). Cells were cultured in minimal essential medium (DMEM), supplemented with 10% FBS and antibiotics (100 IU/ml of penicillin G), then incubated at 37° C. in a humidified atmosphere of 5% CO2. […] MCF-7 cells were seeded into 4 well plates containing an exemplary microarray slide according to the present invention at a density of about 0.1×10^6 cells/ml in 5 ml complete medium (0.5×10^6 cells/slide, total 8 slides) and cultured at 37° C. After 7 h of incubation, non adherent cells were removed and the slide was washed 1× with complete culture medium. New media with varying concentrations of paclitaxel was added ranging from 0 nM-3 uM (0 nM, 3 nM, 10 nM, 30 nM, 100 nM, 300 nm, 1 μM, 3 μM). Cells were incubated for about 16 h at 37° C. Slides were processed using the protocol provided by the manufacturer of the Cellomics Multiparameter Cytotoxicity 3 kit, employing the reagents included in the kit. […] The resulting slides were kept protected from light and analyzed within about 24 h. […] Compartmental Analysis BioApplication (Cellomics) software was used to quantify fluorescent signal. […]

[3] = A549 on certain combinations of ECMs, 24 hrs, 5 ng/ml TGF-β, compared with other ECM compositions

| Compound | e-cadherin expression (epithelial marker) [1, 3] | vimentin expression (mesenchymal marker) [1, 3] | A549 cell attachment ([1]; certain ECM compositions that promote attachment without TGF-β, upon addition of TGF-β) | cytotoxic response of MCF-7 cells to paclitaxel (same cytotoxicity parameters) [2] |
| --- | --- | --- | --- | --- |
| TGF-β | decreases in e-cadherin | increases in vimentin expression | cell detachment is observed | – |
| CC(=O)O[C@H]1C(=O)[C@@]2(C)[C@H]([C@H](OC(=O)c3ccccc3)[C@]3(O)C[C@H](OC(=O)[C@H](O)[C@@H](NC(=O)c4ccccc4)c4ccccc4)C(C)=C1C3(C)C)[C@]1(OC(C)=O)CO[C@@H]1C[C@@H]2O [paclitaxel, Paclitaxel] | – | – | – | maintain a resistance to paclitaxel |
